Reference: ChEMBL document CHEMBL1201862, “PubChem BioAssay data set” (2004)
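Cultured in 96-well plates, cells were exposed to test compound for 48 hours across five concentrations. GI50 is the concentration that inhibits growth by half.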 Active and inactive are the calls of the source. Rule as the data show it: active = GI50 up to about 1.1 µM and inactive = higher.

What was measured:
Assay in all cases: NCI tumour cell line growth inhibition, 48 h
M19-MEL = system: M19-MEL
SNB-78 = system: SNB-78
DMS-114 = system: DMS-114
XF498 = system: XF498
KM-20L2 = system: KM-20L2
DMS-273 = system: DMS-273
DLD-1 = system: DLD-1
RXF 631 = system: RXF 631
HOP-18 = system: HOP-18

Compound	GI50 (M19-MEL)	GI50 (SNB-78)	GI50 (DMS-114)	GI50 (XF498)	GI50 (KM-20L2)	GI50 (DMS-273)	GI50 (DLD-1)	GI50 (RXF 631)	GI50 (HOP-18)
COc1ccc2nc(C)cc(NCCCCCCCCCNc3cc(C)nc4ccc(OC)cc34)c2c1	14.6 µM (inactive)	1.8 µM (inactive)	1.15 µM (inactive)	2.21 µM (inactive)	0.946 µM (active)	0.931 µM (active)	2.31 µM (inactive)	–	–
COc1ccc2oc(C(=O)O)c3c2c1CCC3CCC(=O)O (configuration not stated)	> 100 µM (inactive)	> 100 µM (inactive)	> 100 µM (inactive)	> 100 µM (inactive)	–	> 100 µM (inactive)	> 100 µM (inactive)	> 100 µM (inactive)	–
CCCCNC(=O)C1C2CCC(O2)C1C(=O)O (configuration not stated)	19.3 µM (inactive)	32.9 µM (inactive)	13.9 µM (inactive)	3.41 µM (inactive)	6.24 µM (inactive)	32.4 µM (inactive)	20.2 µM (inactive)	32.5 µM (inactive)	30.4 µM (inactive)
COc1ccc(NC(=O)CC(=O)N/N=C/c2ccc(N(CCC#N)S(=O)(=O)c3ccccc3)cc2)cc1	> 100 µM (inactive)	> 100 µM (inactive)	> 100 µM (inactive)	> 100 µM (inactive)	> 100 µM (inactive)	–	> 100 µM (inactive)	> 100 µM (inactive)	> 100 µM (inactive)
CCCCCCCCCCC/C(=N/O)c1ccc(O)c2ncccc12	2.11 µM (inactive)	4.55 µM (inactive)	2 µM (inactive)	–	3.85 µM (inactive)	1.51 µM (inactive)	2.75 µM (inactive)	–	3.36 µM (inactive)
OC1C2C=CCC1CCC2 (configuration not stated)	> 100 µM (inactive)	> 100 µM (inactive)	> 100 µM (inactive)	> 100 µM (inactive)	> 100 µM (inactive)	> 100 µM (inactive)	> 100 µM (inactive)	> 100 µM (inactive)	> 100 µM (inactive)
Cc1cccc2c(=O)c([Se]c3coc4c(C)cccc4c3=O)coc12	16.5 µM (inactive)	16.3 µM (inactive)	17.7 µM (inactive)	19.7 µM (inactive)	21.5 µM (inactive)	21.4 µM (inactive)	20.8 µM (inactive)	–	19 µM (inactive)
O=C1c2ccccc2C2(O)Oc3cccc(O)c3C12O (configuration not stated)	> 100 µM (inactive)	> 100 µM (inactive)	> 100 µM (inactive)	–	> 100 µM (inactive)	> 100 µM (inactive)	> 100 µM (inactive)	> 100 µM (inactive)	> 100 µM (inactive)
CSc1nc2c(nc(N)n2C2OCC(O)C(O)C2O)c(=O)n1C (configuration not stated)	> 100 µM (inactive)	> 100 µM (inactive)	> 100 µM (inactive)	> 100 µM (inactive)	> 100 µM (inactive)	–	> 100 µM (inactive)	> 100 µM (inactive)	> 100 µM (inactive)
O=C(Cc1ccccc1)Oc1ccc2c(-c3ccccc3)c(C(=O)Nc3ccc(Cl)cc3)c(=O)oc2c1	> 100 µM (inactive)	> 100 µM (inactive)	> 100 µM (inactive)	> 100 µM (inactive)	> 100 µM (inactive)	> 100 µM (inactive)	> 100 µM (inactive)	–	–
COc1ccccc1NC(=O)c1nc2ccc([N+](=O)[O-])cc2nc1C	> 100 µM (inactive)	–	> 100 µM (inactive)	21 µM (inactive)	> 100 µM (inactive)	> 100 µM (inactive)	> 100 µM (inactive)	–	0.238 µM (active)
Fc1cccc(C2SCc3nc4ccccc4n32)c1F (configuration not stated)	43.9 µM (inactive)	32.6 µM (inactive)	23.8 µM (inactive)	–	> 100 µM (inactive)	19.4 µM (inactive)	> 100 µM (inactive)	16.4 µM (inactive)	56.1 µM (inactive)
O=C(Nc1cc(Cl)c(Cl)cc1Cl)C(=O)C(C(=O)c1ccc2ccccc2c1)C1OC(=O)c2ccccc21 (configuration not stated)	13.6 µM (inactive)	8.43 µM (inactive)	9.2 µM (inactive)	–	–	–	14.4 µM (inactive)	–	–
Cc1cccc(C(C)C)c1NC(=O)CC1C(=O)Nc2ccccc2S1(=O)=O (configuration not stated)	18.6 µM (inactive)	17.7 µM (inactive)	13 µM (inactive)	27.6 µM (inactive)	18.1 µM (inactive)	6.03 µM (inactive)	9.25 µM (inactive)	13.4 µM (inactive)	26.4 µM (inactive)
COc1ccccc1NC(=O)C(=O)C(c1cnc2ccc([N+](=O)[O-])cc2n1)[N+](=O)[O-] (configuration not stated)	> 100 µM (inactive)	> 100 µM (inactive)	17.9 µM (inactive)	> 100 µM (inactive)	> 100 µM (inactive)	64 µM (inactive)	> 100 µM (inactive)	39.2 µM (inactive)	> 100 µM (inactive)
Cc1ccc(S(=O)(=O)c2c(N)c3nccn3c3nc4ccccc4nc23)cc1	> 100 µM (inactive)	53.5 µM (inactive)	> 100 µM (inactive)	41.8 µM (inactive)	> 100 µM (inactive)	81.1 µM (inactive)	> 100 µM (inactive)	–	–
O=C(Cc1ccccc1)C(c1ccccc1)S(=O)(=O)c1ccccc1 (configuration not stated)	> 100 µM (inactive)	97.7 µM (inactive)	48.6 µM (inactive)	> 100 µM (inactive)	> 100 µM (inactive)	> 100 µM (inactive)	> 100 µM (inactive)	> 100 µM (inactive)	85.5 µM (inactive)
COC(=O)CC(=O)C[P+](c1ccccc1)(c1ccccc1)c1ccccc1	209 µM (inactive)	–	> 218 µM (inactive)	45.4 µM (inactive)	> 218 µM (inactive)	> 218 µM (inactive)	194 µM (inactive)	> 218 µM (inactive)	39.8 µM (inactive)
CCOC(=O)NN1C(=O)C(=P(c2ccccc2)(c2ccccc2)c2ccccc2)C(C(=O)OCC)=C1C	> 100 µM (inactive)	> 100 µM (inactive)	–	> 100 µM (inactive)	> 100 µM (inactive)	> 100 µM (inactive)	> 100 µM (inactive)	> 100 µM (inactive)	–
COC(=O)C1=C(O)C(O)=C(C(=O)OC)C1	> 100 µM (inactive)	> 100 µM (inactive)	> 100 µM (inactive)	–	> 100 µM (inactive)	> 100 µM (inactive)	> 100 µM (inactive)	–	> 100 µM (inactive)
CCOC(=O)C1Nc2ccccc2[C@H]2OCC[C@@H]12 (some centres not stated)	> 100 µM (inactive)	> 100 µM (inactive)	–	> 100 µM (inactive)	> 100 µM (inactive)	> 100 µM (inactive)	> 100 µM (inactive)	–	> 100 µM (inactive)
Cc1cc2nc3ccc(N(C)C)cc3[s+]c2cc1N [TOLONIUM CHLORIDE]	0.184 µM (active)	12.6 µM (inactive)	0.867 µM (active)	–	14.5 µM (inactive)	2.67 µM (inactive)	6.38 µM (inactive)	–	10.3 µM (inactive)
